Results taken from the supplement of paper PMC10307832.

How the values were obtained:
Test in all cases: relative viability (nuclei count vs DMSO), 5 days (fraction); higher = more cells survive
Zosuquidar + Palbociclib = compound: O[C@@H](COc1cccc2ncccc12)CN1CCN([C@@H]2c3ccccc3[C@@H]3[C@H](c4ccccc42)C3(F)F)CC1 [Zosuquidar] + CC(=O)c1c(C)c2cnc(Nc3ccc(N4CCNCC4)cn3)nc2n(C2CCCC2)c1=O [Palbociclib] (partner 0.5 µM)
Outline: (§1)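 Cells from lung cancer lines were seeded into 1536-well plates and, one day later, dosed by pin tool. Treatments were either a single drug or a fixed dose of an anchor drug with five library-drug doses (not always all listed) in √10 steps. After 5 days, nuclei were stained in a one-step fixation (final 0.05% Triton X-100, 1% formaldehyde, 1 ug/ml Hoechst) and counted on 4× images, and relative viability is the treated-to-vehicle nuclei ratio, as the median of duplicate plates.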

Zosuquidar + Vorinostat = compound: O[C@@H](COc1cccc2ncccc12)CN1CCN([C@@H]2c3ccccc3[C@@H]3[C@H](c4ccccc42)C3(F)F)CC1 [Zosuquidar] + O=C(CCCCCCC(=O)Nc1ccccc1)NO [Vorinostat] (partner 1 µM)
Outline: as §1

[1] = compound: COc1cc2nccc(Oc3ccc(NC(=O)C4(C(=O)Nc5ccc(F)cc5)CC4)cc3)c2cc1OC [Cabozantinib] + Nc1ncn([C@H]2C[C@H](O)[C@@H](CO)O2)c(=O)n1 [Decitabine] (partner 2 µM)
Outline: as §1

Cabozantinib + Alpelisib = compound: COc1cc2nccc(Oc3ccc(NC(=O)C4(C(=O)Nc5ccc(F)cc5)CC4)cc3)c2cc1OC [Cabozantinib] + Cc1nc(NC(=O)N2CCC[C@H]2C(N)=O)sc1-c1ccnc(C(C)(C)C(F)(F)F)c1 [Alpelisib] (partner 2 µM)
Outline: as §1

Row | Cell Line | relative viability (Zosuquidar + Palbociclib; first compound 0.01 µM) | relative viability (Zosuquidar + Palbociclib; first compound 0.03162 µM) | relative viability (Zosuquidar + Palbociclib; first compound 0.1 µM) | relative viability (Zosuquidar + Palbociclib; first compound 0.3162 µM) | relative viability (Zosuquidar + Palbociclib; first compound 1 µM) | relative viability (Zosuquidar + Vorinostat; first compound 0.01 µM) | relative viability (Zosuquidar + Vorinostat; first compound 0.03162 µM) | relative viability (Zosuquidar + Vorinostat; first compound 0.1 µM) | relative viability (Zosuquidar + Vorinostat; first compound 0.3162 µM) | relative viability (Zosuquidar + Vorinostat; first compound 1 µM) | relative viability ([1]; first compound 0.02 µM) | relative viability ([1]; first compound 0.06325 µM) | relative viability ([1]; first compound 0.2 µM) | relative viability ([1]; first compound 0.6325 µM) | relative viability ([1]; first compound 2 µM) | relative viability (Cabozantinib + Alpelisib; first compound 0.02 µM) | relative viability (Cabozantinib + Alpelisib; first compound 0.06325 µM) | relative viability (Cabozantinib + Alpelisib; first compound 0.2 µM) | relative viability (Cabozantinib + Alpelisib; first compound 0.6325 µM) | relative viability (Cabozantinib + Alpelisib; first compound 2 µM)
1 | NCI-H1437 | 0.3 | 0.333 | 0.348 | 0.272 | 0.32 | 0.849 | 0.957 | 0.851 | 0.857 | 0.832 | 0.64 | 0.567 | 0.58 | 0.576 | 0.558 | 1.03 | 1.03 | 0.992 | 1.02 | 0.934
2 | EKVX | 0.377 | 0.39 | – | 0.411 | 0.375 | 0.819 | 0.736 | 0.595 | 0.691 | 0.656 | 0.328 | 0.386 | 0.261 | 0.336 | 0.394 | 0.788 | 0.898 | 0.695 | 0.886 | 0.951
3 | NCI-H596 | – | – | – | – | – | 0.555 | 0.637 | 0.709 | 0.761 | 0.661 | 1.06 | 1.39 | 1.07 | 1.01 | 0.98 | 0.462 | 0.191 | 0.552 | 0.416 | 0.385
4 | NCI-H1993 | 0.653 | 0.603 | – | 0.617 | 0.615 | 0.958 | 0.603 | – | 0.835 | 0.885 | 0.71 | 0.681 | 0.519 | 0.576 | 0.458 | 0.71 | 0.719 | 0.662 | 0.713 | 0.798
5 | HCC-78 | 0.477 | 0.545 | – | 0.492 | 0.462 | 0.465 | – | – | 0.512 | 0.402 | – | 0.704 | 0.503 | 0.489 | 0.487 | 0.26 | 0.298 | 0.227 | 0.201 | 0.198
6 | NCI-H2087 | 0.19 | 0.25 | 0.243 | 0.205 | 0.249 | 0.666 | 0.707 | 0.739 | 0.667 | 0.77 | 0.311 | 0.279 | 0.303 | 0.306 | 0.212 | 1.07 | 1.12 | 0.978 | 1.03 | 0.995
7 | H3255 | 0.306 | 0.335 | 0.32 | 0.33 | 0.33 | 0.787 | 0.837 | 0.613 | 0.824 | 0.756 | 0.618 | 0.636 | – | 0.685 | 0.644 | 0.675 | 0.635 | – | 0.779 | 0.644
